{"source": "BindingDB's records for doi:10.1016/s0960-894x(00)00664-8", "about": "(Kyoto University, 2001)", "assay": "Effective concentration for antagonistic activity by inhibition of T-tropic strain of HIV-1 through its specific binding to a chemokine receptor", "note": "Where a SMILES comes first, the peptide text is derived from it. Bridges are numbered along the chain shown (N, C = ends). [ ]: non-standard residue; d: D form. Gly(2-naphthyl) = N[C@H](C(=O)O)c1ccc2ccccc2c1; Cit = NC(=O)NCCC[C@H](N)C(=O)O"}
{"smiles": "NCCCC[C@@H]1NC(=O)[C@H](CCCN=C(N)N)NC(=O)[C@H](Cc2ccc(O)cc2)NC(=O)[C@@H](NC(=O)[C@@H](NC(=O)[C@H](CCCN=C(N)N)NC(=O)[C@@H](N)CCCN=C(N)N)c2ccc3ccccc3c2)CSSC[C@@H](C(=O)N[C@@H](CCCN=C(N)N)C(=O)O)NC(=O)[C@H](CCCNC(N)=O)NC(=O)[C@H](CCCN=C(N)N)NC(=O)[C@H](Cc2ccc(O)cc2)NC(=O)[C@@H]2CCCN2C(=O)[C@@H](CCCCN)NC1=O", "note": "[Compound T140] (H-RR[Gly(2-naphthyl)]CYRK[dK]PYR[Cit]CR-OH; disulfide 4-13)", "values": [{"measurement": "EC50", "value": 0.18, "unit": "nM"}]}
